Measurements from patent US20230085307A1, “PYRIDAZINONE COMPOUND AND HERBICIDE” (NISSAN CHEMICAL CORPORATION, priority 2019, published 2023).

How the values were obtained:
lambsquarters [1] = experiment: Test Example 5: herbicidal effect by foliage application, plastic box (Table 20, symbol O); type: in vivo, lambsquarters (Chenopodium album); settings: foliage application, 320 g/ha, three weeks after application
Procedure, shortened: (§1)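 Foliar spray test: emulsion formulation diluted in water to a set application rate, sprayed onto 14-day-old plants raised in diluvial soil at 25° C to 30° C under glass. Both herbicidal effect and crop effect rated visually three weeks later.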

barnyard grass [2] = experiment: Test Example 4: herbicidal effect by soil treatment (Table 19, symbol H); type: in vivo, barnyard grass (Echinochloa crus-galli); settings: amount of applied herbicide 320 g/ha
Procedure, shortened: (§2)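 Herbicidal effect was rated 3 weeks after treatment, using the scoring criteria of an earlier test. The compound, formulated as an emulsion and diluted in water to a set herbicide amount, had been sprayed uniformly on soil over freshly sown seeds. Growth took place in a greenhouse at 25° C. to 30° C.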

velvetleaf [3] = experiment: Test Example 4: herbicidal effect by soil treatment (Table 19, symbol M); type: in vivo, velvetleaf (Abutilon theophrasti); settings: amount of applied herbicide 320 g/ha
Procedure, shortened: as §2

chickweed [4] = experiment: Test Example 5: herbicidal effect by foliage application, plastic box (Table 20, symbol P); type: in vivo, common chickweed (Stellaria media); settings: foliage application, 320 g/ha, three weeks after application
Procedure, shortened: as §1

persian speedwell [5] = experiment: Test Example 4: herbicidal effect by soil treatment (Table 19, symbol R); type: in vivo, Persian speedwell (Veronica persica); settings: amount of applied herbicide 320 g/ha
Procedure, shortened: as §2

barnyard grass [6] = experiment: Test Example 3: herbicidal effect by foliage application, Wagner pot (Table 18, symbol H); type: in vivo, barnyard grass (Echinochloa crus-galli); settings: 320 g/ha
Procedure, shortened: (§3)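 Plants were sown in alluvial soil held under 0.1–0.5 cm standing water and grown 14 days in a greenhouse at 25–30 °C. An emulsifiable formulation, water-diluted to the set dose, was then sprayed onto the foliage, and effects were scored three weeks later using previously defined criteria.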

wild oat [7] = experiment: Test Example 4: herbicidal effect by soil treatment (Table 19, symbol I); type: in vivo, wild oat (Avena fatua); settings: amount of applied herbicide 320 g/ha
Procedure, shortened: as §2

Italian ryegrass [8] = experiment: Test Example 5: herbicidal effect by foliage application, plastic box (Table 20, symbol K); type: in vivo, Italian ryegrass (Lolium multiflorum); settings: foliage application, 320 g/ha, three weeks after application
Procedure, shortened: as §1

windgrass = experiment: Test Example 5: herbicidal effect by foliage application, plastic box (Table 20, symbol L); type: in vivo, windgrass (Apera spica-venti); settings: foliage application, 320 g/ha, three weeks after application
Procedure, shortened: as §1

wild oat [9] = experiment: Test Example 5: herbicidal effect by foliage application, plastic box (Table 20, symbol I); type: in vivo, wild oat (Avena fatua); settings: foliage application, 320 g/ha, three weeks after application
Procedure, shortened: as §1

Chinese sprangletop = experiment: Test Example 3: herbicidal effect by foliage application, Wagner pot (Table 18, symbol D); type: in vivo, chinese sprangletop (Leptochloa chinensis); settings: 320 g/ha
Procedure, shortened: as §3

redroot pigweed [10] = experiment: Test Example 5: herbicidal effect by foliage application, plastic box (Table 20, symbol N); type: in vivo, redroot pigweed (Amaranthus retroflexus); settings: foliage application, 320 g/ha, three weeks after application
Procedure, shortened: as §1

Italian ryegrass [11] = experiment: Test Example 4: herbicidal effect by soil treatment (Table 19, symbol K); type: in vivo, Italian ryegrass (Lolium multiflorum); settings: amount of applied herbicide 320 g/ha
Procedure, shortened: as §2

false cleavers [12] = experiment: Test Example 5: herbicidal effect by foliage application, plastic box (Table 20, symbol Q); type: in vivo, false cleavers (Galium spurium); settings: foliage application, 320 g/ha, three weeks after application
Procedure, shortened: as §1

velvetleaf [13] = experiment: Test Example 5: herbicidal effect by foliage application, plastic box (Table 20, symbol M); type: in vivo, velvetleaf (Abutilon theophrasti); settings: foliage application, 320 g/ha, three weeks after application
Procedure, shortened: as §1

southern crabgrass [14] = experiment: Test Example 4: herbicidal effect by soil treatment (Table 19, symbol F); type: in vivo, southern crabgrass (Digitaria ciliaris); settings: amount of applied herbicide 320 g/ha
Procedure, shortened: as §2

green foxtail [15] = experiment: Test Example 5: herbicidal effect by foliage application, plastic box (Table 20, symbol G); type: in vivo, green foxtail (Setaria viridis); settings: foliage application, 320 g/ha, three weeks after application
Procedure, shortened: as §1

rice flat sedge = experiment: Test Example 3: herbicidal effect by foliage application, Wagner pot (Table 18, symbol E); type: in vivo, rice flat sedge (Cyperus iria); settings: 320 g/ha
Procedure, shortened: as §3

green foxtail [16] = experiment: Test Example 4: herbicidal effect by soil treatment (Table 19, symbol G); type: in vivo, green foxtail (Setaria viridis); settings: amount of applied herbicide 320 g/ha
Procedure, shortened: as §2

barnyard grass [17] = experiment: Test Example 5: herbicidal effect by foliage application, plastic box (Table 20, symbol H); type: in vivo, barnyard grass (Echinochloa crus-galli); settings: foliage application, 320 g/ha, three weeks after application
Procedure, shortened: as §1

blackgrass [18] = experiment: Test Example 4: herbicidal effect by soil treatment (Table 19, symbol J); type: in vivo, blackgrass (Alopecurus myosuroides); settings: amount of applied herbicide 320 g/ha
Procedure, shortened: as §2

lambsquarters [19] = experiment: Test Example 4: herbicidal effect by soil treatment (Table 19, symbol O); type: in vivo, lambsquarters (Chenopodium album); settings: amount of applied herbicide 320 g/ha
Procedure, shortened: as §2

blackgrass [20] = experiment: Test Example 5: herbicidal effect by foliage application, plastic box (Table 20, symbol J); type: in vivo, blackgrass (Alopecurus myosuroides); settings: foliage application, 320 g/ha, three weeks after application
Procedure, shortened: as §1

redroot pigweed [21] = experiment: Test Example 4: herbicidal effect by soil treatment (Table 19, symbol N); type: in vivo, redroot pigweed (Amaranthus retroflexus); settings: amount of applied herbicide 320 g/ha
Procedure, shortened: as §2

persian speedwell [22] = experiment: Test Example 5: herbicidal effect by foliage application, plastic box (Table 20, symbol R); type: in vivo, Persian speedwell (Veronica persica); settings: foliage application, 320 g/ha, three weeks after application
Procedure, shortened: as §1

southern crabgrass [23] = experiment: Test Example 5: herbicidal effect by foliage application, plastic box (Table 20, symbol F); type: in vivo, southern crabgrass (Digitaria ciliaris); settings: foliage application, 320 g/ha, three weeks after application
Procedure, shortened: as §1

false cleavers [24] = experiment: Test Example 4: herbicidal effect by soil treatment (Table 19, symbol Q); type: in vivo, false cleavers (Galium spurium); settings: amount of applied herbicide 320 g/ha
Procedure, shortened: as §2

chickweed [25] = experiment: Test Example 4: herbicidal effect by soil treatment (Table 19, symbol P); type: in vivo, common chickweed (Stellaria media); settings: amount of applied herbicide 320 g/ha
Procedure, shortened: as §2

Cc1nn(C)c(=O)c(-c2c(-c3ccccc3C(F)(F)F)sc3ccccc23)c1O [1-007]
herbicidal effect grade, O: lambsquarters (lambsquarters [1]): 5 (Herbicidal rate of 90% or more (almost completely withered))
herbicidal effect rating, H: barnyard grass (barnyard grass [2]): 0 (Herbicidal rate of 5% or less (almost no effect))
herbicidal effect rating, M: velvetleaf (velvetleaf [3]): 0 (Herbicidal rate of 5% or less (almost no effect))
herbicidal effect grade, P: chickweed (chickweed [4]): 5 (Herbicidal rate of 90% or more (almost completely withered))
herbicidal effect rating, R: persian speedwell (persian speedwell [5]): 0 (Herbicidal rate of 5% or less (almost no effect))
herbicidal effect on H (barnyard grass), rating 0-5 (barnyard grass [6]): 5 (Herbicidal rate of 90% or more (almost completely withered))
herbicidal effect rating, I: wild oat (wild oat [7]): 3 (Herbicidal rate of 40% or more and less than 70%)
herbicidal effect grade, K: Italian ryegrass (Italian ryegrass [8]): 3 (Herbicidal rate of 40% or more and less than 70%)
herbicidal effect grade, L: windgrass (windgrass): 5 (Herbicidal rate of 90% or more (almost completely withered))
herbicidal effect grade, I: wild oat (wild oat [9]): 3 (Herbicidal rate of 40% or more and less than 70%)
herbicidal effect on D (Chinese sprangletop), rating 0-5 (Chinese sprangletop): 5 (Herbicidal rate of 90% or more (almost completely withered))
herbicidal effect grade, N: redroot pigweed (redroot pigweed [10]): 5 (Herbicidal rate of 90% or more (almost completely withered))
herbicidal effect rating, K: Italian ryegrass (Italian ryegrass [11]): 0 (Herbicidal rate of 5% or less (almost no effect))
herbicidal effect grade, Q: false cleavers (false cleavers [12]): 5 (Herbicidal rate of 90% or more (almost completely withered))
herbicidal effect grade, M: velvetleaf (velvetleaf [13]): 5 (Herbicidal rate of 90% or more (almost completely withered))
herbicidal effect rating, F: southern crabgrass (southern crabgrass [14]): 0 (Herbicidal rate of 5% or less (almost no effect))
herbicidal effect grade, G: green foxtail (green foxtail [15]): 5 (Herbicidal rate of 90% or more (almost completely withered))
herbicidal effect on E (rice flat sedge), rating 0-5 (rice flat sedge): 4 (Herbicidal rate of 70% or more and less than 90%)
herbicidal effect rating, G: green foxtail (green foxtail [16]): 0 (Herbicidal rate of 5% or less (almost no effect))
herbicidal effect grade, H: barnyard grass (barnyard grass [17]): 3 (Herbicidal rate of 40% or more and less than 70%)
herbicidal effect rating, J: blackgrass (blackgrass [18]): 0 (Herbicidal rate of 5% or less (almost no effect))
herbicidal effect rating, O: lambsquarters (lambsquarters [19]): 0 (Herbicidal rate of 5% or less (almost no effect))
herbicidal effect grade, J: blackgrass (blackgrass [20]): 0 (Herbicidal rate of 5% or less (almost no effect))
herbicidal effect rating, N: redroot pigweed (redroot pigweed [21]): 0 (Herbicidal rate of 5% or less (almost no effect))
herbicidal effect grade, R: persian speedwell (persian speedwell [22]): 5 (Herbicidal rate of 90% or more (almost completely withered))
herbicidal effect grade, F: southern crabgrass (southern crabgrass [23]): 3 (Herbicidal rate of 40% or more and less than 70%)
herbicidal effect rating, Q: false cleavers (false cleavers [24]): 0 (Herbicidal rate of 5% or less (almost no effect))
herbicidal effect rating, P: chickweed (chickweed [25]): 3 (Herbicidal rate of 40% or more and less than 70%)
